Earlier results on four compounds are cited in US12247053B2 (priority 2018, dated 2025).

In the series the test system is 2009 swine flu influenza A(H1N1).
Consider `NC12CC3CC(CC(C3)C1)C2` [amantadine], for which the “susceptibility of the virus” value is recorded as “resistant”. Turning to `CCOC(=O)C1=C[C@@H](OC(CC)CC)[C@H](NC(C)=O)[C@@H](N)C1` [oseltamivir], the “susceptibility of the virus” value is “susceptible”. `CC(N)C12CC3CC(CC(C3)C1)C2` (stereo not shown) [rimantadine]: the “susceptibility of the virus” value was “resistant”.

Consider `CC(=O)N[C@H]1[C@H]([C@H](O)[C@H](O)CO)OC(C(=O)O)=C[C@@H]1N=C(N)N` [zanamivir], for which the “susceptibility of the virus” value is recorded as “susceptible”.
